According to PubChem BioAssay (NCI):
Several values for one entry are separate records, joined by “and”; a condition that tells them apart may be missing. Equal entries are not always repeated.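 Dose response: 5 concentrations. Exposure: 48 h. Format: 96-well plates. Endpoint: linear interpolation; highest concentration if not reached. GI50 marks 50% less growth. TGI denotes the concentration required for complete inhibition of growth.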

Legend:
Assay in all cases: DTP human tumour cell line panel, 48 h
[1] = test system: MDA-MB-231 breast
[2] = test system: SW-620 colon
[3] = test system: UACC-62 melanoma
[4] = test system: IGROV1 ovarian
[5] = test system: NCI/ADR-RES ovarian
[6] = test system: SNB-19 CNS
[7] = test system: SF-295 CNS
[8] = test system: OVCAR-5 ovarian
[9] = test system: SN12C renal
[10] = test system: MOLT-4 leukemia

SMILES | GI50 [1] | TGI [1] | GI50 [2] | TGI [2] | GI50 [3] | TGI [3] | GI50 [4] | TGI [4] | GI50 [5] | TGI [5] | GI50 [6] | TGI [6] | GI50 [7] | TGI [7] | GI50 [8] | TGI [8] | GI50 [9] | TGI [9] | GI50 [10] | TGI [10]
Cn1cc(-c2ccc(-c3ccc(C4=NC5(CC5)C(=O)N4C[C@@H]4CCN(C(=O)C5CC5)C4)cc3)cc2)cn1 | 11200 nM | 37.3 µM | 18200 nM | > 100 µM | 10200 nM | 34.5 µM | 28700 nM | > 100 µM | 10400 nM | > 100 µM | 21800 nM | > 100 µM | 10800 nM | 29.2 µM | 38600 nM | > 100 µM | 17500 nM | 77.3 µM | 4310 nM | 80.8 µM
COC(=O)[C@@H](C)C[C@H](Cc1ccccc1)NC(=O)c1csc([C@@H](C[C@H](C(C)C)N(C)C(=O)[C@@H](NC(=O)[C@H]2CCCCN2C)C2CC2)OC(C)=O)n1 | 1.43 nM and 1.65 nM | > 16.5 µM | 0.292 nM and 1.65 nM | > 16.5 µM |  | > 16.5 µM | 1.04 nM and 1.65 nM | > 16.5 µM | 48.8 nM and 60.3 nM | > 16.5 µM | 0.552 nM and 1.65 nM | > 16.5 µM | 0.345 nM | 0.00369 µM | 3.84 nM and 6.04 nM | > 16.5 µM | 1.15 nM and 1.65 nM | > 16.5 µM | 4.64 nM and 1.65 nM | > 16.5 µM
O=C1C(=O)c2cccnc2-c2ncccc21 | 140 nM | 0.503 µM | 72 nM | 1.12 µM | 201 nM | 0.514 µM | 133 nM | 0.413 µM | 89.8 nM | 0.281 µM | 236 nM | 1.1 µM | 295 nM | 0.946 µM | 328 nM | 1.29 µM | 250 nM | 0.848 µM | 171 nM | 0.509 µM
Cc1cc(N2CCOCC2)cc2[nH]c(-c3c(NC[C@@H](O)c4cccc(Cl)c4)cc[nH]c3=O)nc12 | 1220 nM | 5.37 µM | 1050 nM | 11.2 µM | 2360 nM | 12.6 µM | 912 nM | 5.28 µM | 2830 nM | 12.3 µM | 3290 nM | 22.8 µM | 2720 nM | 18.9 µM | 673 nM | 9.66 µM | 798 nM | 12.7 µM | 3140 nM | 27.7 µM
Cc1ccc(O)c(NC(=O)c2ccc(CNc3ccnc(C(F)(F)F)c3)cc2)c1 | 3360 nM | 47.2 µM | 8700 nM | 42.4 µM | 1070 nM | 13.4 µM | 1820 nM | 16.4 µM | 4680 nM | 37.8 µM | 6150 nM | 48 µM | 1350 nM | 12.2 µM | 16300 nM | 69.1 µM | 4230 nM | > 100 µM | 1770 nM | 20.6 µM
COc1ccc2c(c1)C(=O)c1c-2n(CCCI)c(=O)c2cc([N+](=O)[O-])ccc12 | 12900 nM and 22900 nM | 50 µM and > 100 µM | 52.4 nM and 34.5 nM | 7.91 µM and 15.6 µM | 109 nM and 149 nM | 0.851 µM and 1.35 µM |  | 50 µM and 72.3 µM | 140 nM and 122 nM |  | 313 nM and 131 nM | 36.9 µM and > 100 µM | 122 nM and 100 nM | 50 µM and 66.8 µM |  | 7.75 µM and 46.3 µM | 105 nM and 312 nM |  | 60 nM and 21.4 nM | 0.971 µM and 0.117 µM
O=C1c2ccccc2-c2c1c1ccccc1c(=O)n2CCCn1ccnc1 | 2080 nM | 5.8 µM | 949 nM | 30.2 µM | 791 nM | 2.29 µM | 2860 nM | > 100 µM | 1810 nM | 6.09 µM | 2110 nM | > 100 µM | 896 nM | 2.99 µM | 3050 nM | 53.6 µM | 1660 nM | 4.31 µM | 274 nM | 0.763 µM
CCNC(=O)O[C@H]1CN[C@H](C#Cc2cc3ncnc(Nc4ccc(OCc5cccc(F)c5)c(Cl)c4)c3s2)C1 | 4350 nM | > 16 µM | 12000 nM | > 25 µM | 17000 nM | > 25 µM | 2660 nM | > 25 µM | 6190 nM | > 25 µM | 16200 nM | > 25 µM | 8130 nM | > 25 µM | 8980 nM | > 25 µM | 5710 nM | > 25 µM | 4580 nM | > 25 µM
CC(C)CC(NC(=O)OC(C)(C)C)C(=O)Nc1ccc(Nc2nc(F)nc(-c3c4ccccc4cn3C)n2)cc1 (stereo not given) |  | > 100 µM |  | > 54.4 µM |  | > 100 µM |  | > 100 µM |  | > 100 µM |  | > 100 µM |  | > 100 µM |  | > 100 µM |  | > 100 µM |  | > 100 µM
CN(C)CCCNC(=O)c1cc(NC(=O)c2cc(NC(=O)CCNS(=O)(=O)c3ccc4c(c3)C(=O)c3ccccc3C4=O)cn2C)cn1C | > 100000 nM | > 100 µM | > 100000 nM | > 100 µM | > 100000 nM | > 100 µM | > 100000 nM | > 100 µM | > 100000 nM | > 100 µM | > 100000 nM | > 100 µM | > 100000 nM | > 100 µM | > 100000 nM | > 100 µM | > 100000 nM | > 100 µM | > 100000 nM | > 100 µM
O=C1CCc2c(sc3[nH]c(=S)n(Cc4ccc(Cl)cc4)c(=O)c23)C1 | 379 nM | 1.68 µM | 393 nM | > 100 µM | 329 nM | 1.76 µM | 454 nM | > 100 µM | 408 nM | > 41.8 µM | 385 nM | > 100 µM | 863 nM | 4.68 µM | 743 nM | 3.6 µM | 384 nM | > 84.7 µM | 1210 nM | 17.1 µM
